Laboratory results from patent US20190231757A1, “COMBINATION OF SPLEEN TYROSINE KINASE INHIBITORS AND OTHER THERAPEUTIC AGENTS” (Takeda Pharmaceutical Company Limited, priority 2016, published 2019).
“And” between values parts separate entries of the source, which are not always exact repeats. Identical values can stand only once. Counter-ions that a name gives are not always drawn.

Key:
[1] = Body weight and tolerability, OCI-LY10 gemcitabine study (Example 7); type: in vivo, mouse; details: alone or combined
Experimental: (§1) Experimental design: Female CB17 SCID mice (Taconic Biosciences; weight at treatment start was 20 g) were inoculated subcutaneously in the flank (cell suspension) with 4.0×10^6 OCI-Ly10 cells. Tumor volume was calculated using the formula V=W^2×L/2, where V=volume, W=width and L=length of the tumor. When the mean tumor volume reached approximately 199 mm^3, the animals were randomized into 6 treatment groups (n=8/group). […] Tumor growth and body weight were measured twice per week. Tumor growth inhibition and body weight change were calculated on Day 21 of treatment.

[2] = Body weight and tolerability, TMD8 gemcitabine study (Example 8); type: in vivo, mouse; details: alone or combined
Experimental: as §1, with “19” for “20”, “5.0×10^6 TMD8” for “4.0×10^6 OCI-Ly10”, “cells. Tumor growth was monitored with vernier calipers.” for “cells.”, “215” for “199”, “into” for “into 6”, “14” for “21”

[3] = Body weight and tolerability, A20 study (Example 1); type: in vivo, mouse; details: Compound A 60 mg/kg PO QD 21 d, anti-PD-1 10 mg/kg IP Q4D x3, alone or combined
TMD8 DLBCL xenografts = assay: Antitumor activity in CB17 SCID mice bearing TMD8 DLBCL xenografts, ABT-199 or gemcitabine combination (Example 9); type: in vivo, mouse; details: Day 14, alone or combined with Compound A
Experimental: Tumor growth inhibition was calculated on Day 14 of the study. The last measurement was taken on Day 29 of the study.
as §1, with “about 19” for “20”, “5.0×10^6 TMD8” for “4.0×10^6 OCI-Ly10”, “cells. Tumor growth was monitored with vernier calipers.” for “cells.”, “245” for “199”, “14” for “21”
(§2) Statistical analysis: The differences in the tumor growth trends over time between pairs of treatment groups were assessed using linear mixed effects regression models. These models account for the fact that each animal was measured at multiple time points. A separate model was fit for each comparison, and the areas under the curve (AUC) for each treatment group were calculated using the predicted values from the model. The percent decrease in AUC (dAUC) relative to the reference group was then calculated. […] Further details regarding pairwise comparisons are provided in the Example 2.
(§3) Drug combinations were assessed for synergy using observed AUC values. The change in AUC relative to the control was calculated for both single agent treatment groups as well as the combination group. The interaction between the two compounds was then assessed by comparing the change in AUC observed in the combination group to the sum of the changes observed in both single agents. The results can be divided into four categories: synergistic, additive, sub-additive, and antagonistic. Further details regarding combination analyses are provided in the Example 2.
(§4) Once a final analysis was selected, the tumor measurements observed on a date pre-specified by the researcher (typically the last day of treatment) were analyzed to assess tumor growth inhibition. For this analysis, a T/C ratio was calculated for each animal by dividing the tumor measurement for the given animal by the mean tumor measurement across all control animals. The T/C ratios across a treatment group were compared to the T/C ratios of the control group using a two-tailed Welch's t-test.

[4] = Clinical activity in a recent study (response-evaluable subjects); type: in vivo; details: 3 DLBCL PR, 1 FL CR, 2 FL SD
[5] = Body weight and tolerability, WSU-Luc ibrutinib study (Example 12); type: in vivo, mouse; details: alone or combined
Experimental: Tumor growth was monitored with vernier calipers. Tumor volume was calculated using the formula V=W^2×L/2, where V=volume, W=width and L=length of the tumor. When the mean tumor volume reached approximately 190 mm^3, the animals were randomized into treatment groups (n=8/group). […] Tumor growth and body weight were measured twice per week. Tumor growth inhibition and body weight change were calculated on Day 20 of treatment.

sensitive cell systems = assay: Activity in sensitive cell systems; type: cell-based
OCI-LY 10 xenografts = assay: Antitumor activity in CB17 SCID mice bearing OCI-LY10 xenografts, ABT-199 combination (Example 11); type: in vivo, mouse; details: Day 21, alone or combined
Experimental: Tumor growth inhibition was calculated on Day 21 of the study. The last measurement was taken on Day 46 of the study.
as §1, with “(Charles River Laboratories, about 21 g” for “(Taconic Biosciences; weight”, “start)” for “start was 20 g)”, “cells. Tumor growth was monitored with vernier calipers.” for “cells.”, “175” for “199”, “into” for “into 6”, “(n=5/group).” for “(n=8/group).”
as §2, §3, §4

[6] = Body weight and tolerability, OCI-LY10 ABT-199 study (Example 11); type: in vivo, mouse; details: alone or combined
Experimental: as §1, with “(Charles River Laboratories, about 21 g” for “(Taconic Biosciences; weight”, “start)” for “start was 20 g)”, “cells. Tumor growth was monitored with vernier calipers.” for “cells.”, “175” for “199”, “into” for “into 6”, “(n=5/group).” for “(n=8/group).”

[7] = tested on: Ly19 human lymphoma xenografts; assay: Antitumor activity in SCID mice bearing Ly19 xenografts, rituximab combination (Example 14); type: in vivo, mouse; details: alone or combined
[8] = tested on: Ly10 human lymphoma xenografts; assay: Antitumor activity in SCID mice bearing Ly10 xenografts, rituximab combination (Example 13); type: in vivo, mouse; details: alone or combined
[9] = Compound A 60 mg/kg, ABT-199 25 mg/kg, gemcitabine 5 mg/kg
[10] = Compound A 60 mg/kg, ABT-199 12.5 mg/kg
[11] = Day 14, Compound A 60 mg/kg PO QD x14, rituximab 10 mg/kg IV QW x2
[12] = Day 21, Compound A 60 mg/kg PO QD x21, rituximab 1 mg/kg IV QW x3

## Cn1cc(-c2nc(N[C@@H]3CCCC[C@@H]3N)c(F)c3c2C(=O)NC3)cn1 [Compound A, 6-((1R,2S)-2-aminocyclohexylamino)-7-fluoro-4-(1-methyl-1H-pyrazol-4-yl)-1H-pyrrolo[3,4-c]pyridine-3 (2H)-one citrate]
[1]; Compound A 60 mg/kg PO QD 21 d, gemcitabine 2.5 mg/kg IP Q3D (4 doses)
  % BW Change (Day Maximum): 6.8 (21) %
[1]; Compound A 60 mg/kg, gemcitabine 2.5 mg/kg
  Number of animals removed: 0
[2]; Compound A 60 mg/kg PO QD 14 d, gemcitabine 5 mg/kg IP Q3D x4
  % BW Change (Day Maximum): 6.4 (12) %
[2]; Compound A 60 mg/kg, gemcitabine 5 mg/kg
  Number of animals removed: 0
[3]
  Number of animals removed: 1
[3]; maximum change within treatment period, citrate
  % BW Change (Day Maximum): 15.8% and 15.8 (19) %
TMD8 DLBCL xenografts; Compound A 60 mg/kg PO QD, ABT-199 25 mg/kg PO QD, gemcitabine 5 mg/kg IP Q3D x4
  TGI (%): 25.7%
TMD8 DLBCL xenografts; [9]
  Mean Tumor Volume (mm^3) ± SEM: 1,100.2 ± 134.5 mm^3
  T/C: 0.74
[4]
  response-evaluable subjects who responded to treatment: 6 of the 20
[5]; Compound A 60 mg/kg PO QD 21 d, ibrutinib 20 mg/kg PO QD 21 d
  % BW Change (Day Maximum): 11.6 (20) %
[5]; Compound A 60 mg/kg, ibrutinib 20 mg/kg
  Number of animals removed: 0
Sensitive cell systems
  EC50: 25 to 400 nM
OCI-LY 10 xenografts; Compound A 60 mg/kg PO QD, ABT-199 12.5 mg/kg PO QD
  TGI (%): 61.0%
OCI-LY 10 xenografts; [10]
  Mean Tumor Volume (mm^3) ± SEM: 408 ± 104.9 mm^3
  T/C: 0.39
[6]; Compound A 60 mg/kg PO QD 21 d, ABT-199 12.5 mg/kg PO QD 21 d
  % BW Change (Day Maximum): −0.0 (3) %
[6]; [10]
  Number of animals removed: 0
[7]; [11]
  Mean Tumor Volume (mm^3) ± SEM at Day 14: 1594.0 ± 115.6 mm^3
  TGI (%): 36.6%
[7]; vs vehicle, Compound A 60 mg/kg, rituximab 10 mg/kg
  dAUC: 11.5
[8]; [12]
  Mean Tumor Volume (mm^3) ± SEM at Day 21: 217.6 ± 25.6 mm^3
  TGI (%): 76.0%
[8]; vs vehicle, Compound A 60 mg/kg, rituximab 1 mg/kg
  dAUC: 122.4
